Reference: patent US7576094B2, “Spiro derivatives as lipoxygenase inhibitors” (Eli Lilly and Company, priority 2004, dated 2009)

Assays:
[1] = tested on: release of the leukotriene LTB4 from a neutrophil cell line (MPRO cell line); assay: LTB4-Cell Assay; format: cell-based; settings: Mus musculus, 1 h, read-out: inhibition of LTB4 with an EC50
Description: • This procedure was used for measuring the release of the leukotriene LTB4 from a neutrophil cell line using a competitive ELISA technique. Materials and Equipments Materials for Cell Preparation and Experiment • MPRO cell line (ATCC, Catalog # CRL-11422) • Calcium ionophore (A23187) (Sigma, Catalog # C7522) • Nordihydroguaiaretic acid (NDGA) (BioMol ,Catalog # EI101-0001) • Retinoic Acid (all-trans) (ATRA) (Sigma, Catalog # 95152) • Sterile, tissue-culture treated 96-well plates (Corning, Catalog # 3614) Materials for LTB4 ELISA • Precoated (Mouse Anti-Rabbit IgG) EIA 96 Well Strip Plates (Cayman, Catalog # 400004) • Leukotriene B4 AChE Tracer (Cayman Catalog # 420110) • Leukotriene B4 EIA Antiserum (Cayman Catalog # 420112) • Ellman's Reagent (Cayman Catalog # 400050) • EIA Buffer Concentrate (10×) (Cayman Catalog # 400060) • Wash Buffer Concentrate (400×) (Cayman Catalog # 400062) • Plastic plate covers (Cayman Catalog # 400012) Procedure
A mouse promyelocytic cell line (MPRO) was used in this assay. These cells are committed immature neutrophils that can be differentiated into mature neutrophils by treatment with 10 μM all-trans retinoic acid for 72 hours.
Following 72 hours of differentiation, cells were stimulated with 1 μM of a calcium ionophore (A23187) in the presence or absence of test compound or vehicle for 1 hour at 37° C. After this time, supernatant was removed from the cells and the LTB4 levels were determined following manufacturer's instructions, using a Leukotriene B4 EIA kit from Cayman (Cat # 5201 11). The negative controls were media samples from differentiated but un-stimulated cells. The compounds were screened at 5 concentrations in quadruplicate starting at 10 μM.

[2] = target: T1, human recombinant 5-Lipoxygenase (Homo sapiens, UniProt P09917); assay: 5-Lipoxygenase Enzyme Assay; format: biochemical; settings: 70 μM arachidonic acid, 10 minute incubation at room temperature, FOX reagent, absorbance at 620 nm; read-out: inhibition of 5-Lipoxygenase with an IC50
T1 sequence (P09917 1-674): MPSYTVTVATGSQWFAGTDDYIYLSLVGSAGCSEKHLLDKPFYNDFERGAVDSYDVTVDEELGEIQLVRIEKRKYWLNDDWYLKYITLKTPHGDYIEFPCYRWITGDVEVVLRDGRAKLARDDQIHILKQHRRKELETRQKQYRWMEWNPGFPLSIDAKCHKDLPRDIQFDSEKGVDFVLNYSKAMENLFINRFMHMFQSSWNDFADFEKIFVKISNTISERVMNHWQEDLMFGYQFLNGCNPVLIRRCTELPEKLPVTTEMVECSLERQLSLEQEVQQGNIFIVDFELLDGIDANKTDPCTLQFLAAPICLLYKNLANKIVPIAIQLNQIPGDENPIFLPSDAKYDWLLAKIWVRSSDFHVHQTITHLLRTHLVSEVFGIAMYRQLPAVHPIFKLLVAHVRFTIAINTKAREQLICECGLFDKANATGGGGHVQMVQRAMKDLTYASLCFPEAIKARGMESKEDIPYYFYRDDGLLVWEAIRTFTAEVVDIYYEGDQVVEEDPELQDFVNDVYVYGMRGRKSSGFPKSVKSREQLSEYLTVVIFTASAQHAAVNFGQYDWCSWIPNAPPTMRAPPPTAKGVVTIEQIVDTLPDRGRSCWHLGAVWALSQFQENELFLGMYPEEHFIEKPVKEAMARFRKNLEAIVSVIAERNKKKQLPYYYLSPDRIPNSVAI
Procedure, shortened: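 Recombinant human 5-LOX in 50 mM Tris-HCl pH 7.4 was preincubated with compound, then 70 μM arachidonic acid was added for 10 min at room temperature. Hydroperoxide was read by FOX reagent (ferric xylenol orange, 1 h complex formation) as absorbance at 620 nm. Five concentrations in triplicate were tested, starting at 10 μM.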

[3] = tested on: LTB4 production in human whole blood; assay: Inhibition of LTB4 Production in Blood; format: cell-based; settings: 1 h, 20 μM A23187, 60 minutes at 37° C., LTB4 in plasma by ELISA, read-out: protection against LTB4 at an EC50
Method: • Human whole blood (Na citrate) (Stanford Blood Center) • A23187, (Sigma, Cat# C-7522) • Leukotriene B4 EIA reagents (Cayman Chemical, Cat # 520111) • BWA4C (Sigma, Cat # B7559) Procedure Preparation of A23187:
A23187 was prepared as a 10 mM stock solution in DMSO (aliquots can be stored at −20° C.). On the day of the assay the stock solution was diluted as follows: 70 μL 10 mM stock added to 1.6 mL plasma to give a working concentration of 0.42 mM.
From a 30 mM stock solution in DMSO, test articles were diluted to a working concentration of 600 μM in PBS (i.e. 10 μL stock solution+490 μL PBS). This is the highest concentration (gives a final testing concentration of 30 μM). From this 600 μM solution test articles were serially diluted 1:3 in PBS to give a dose-response curve. 10 μL of each concentration of test article was then added to 4 wells of a 96-well plate (i.e. testing in quadruplicate). A positive control compound, BWA4C was used in every assay.
Human whole blood was added to the plates containing compounds (190 μL per well) and mixed well. The blood was incubated with compound at 37° C. for 15 minutes. Following this incubation, 10 μL of 0.42 mM A23187 was added to each well except the negative control wells to give a final calcium ionophore concentration of 20 μM. The plates were then incubated at 37° C. for 60 minutes. After the incubation period, plates were centrifuged for 15 min at 2000 g at 4° C. in sealed microplate buckets. Plasma was then removed for quantitation of LTB4 levels by ELISA.
LTB4 levels in the plasma were determined using a commercially available ELISA kit from Cayman Chemicals. The ELISA was run according to the manufacturer's instructions. The LTB4 levels in the vehicle control sample were then compared to those in which the test article had been added. From this a percent inhibition of LTB4 production by each concentration of test article was calculated and the IC50 was determined.

**Q.** Which results are given for `CONC1CC2(CCC2)Oc2cc(C)c(O)c(C)c21` (stereo in doubt) [(4R)-4-(methoxyamino)-5,7-dimethyl-3,4-dihydrospiro[chromene-2,1′-cyclobutan]-6-ol]?
**A.** EC50 [1]: < 5 µM; IC50 [2]: < 0.3 µM; EC50 [3]: < 10 µM

**Q.** `COC1c2c(C)c(O)c(C)c(C)c2OCC12CCC2` (stereo not shown) [4-methoxy-5,7,8-trimethylspiro[chroman-3,1′-cyclobutan]-6-ol] was tested. Which EC50 [1] did it give?
**A.** < 5 µM

**Q.** What about the IC50 [2] of the same molecule?
**A.** < 0.3 µM

**Q.** What about the EC50 [3] of the same molecule?
**A.** < 10 µM

**Q.** What does the source list for `CCc1cc2c(c(CC)c1O)C(NOC)CC1(CCC1)O2` (stereo not shown) [4-(methoxyamino)-5,7-diethyl-3,4-dihydrospiro[chromene-2,1′-cyclobutan]-6-ol]?
**A.** EC50 [1]: < 5 µM; IC50 [2]: < 0.3 µM; EC50 [3]: < 10 µM

**Q.** Which EC50 [1] does the source give for `CCc1cc2c(c(CC)c1O)/C(=N/OC)CC1(CCC1)O2` [5,7-diethyl-6-hydroxyspiro[chromene-2,1′-cyclobutan]-4(3H)-one O-methyloxime] here?
**A.** < 5 µM

**Q.** And the IC50 [2]?
**A.** < 0.3 µM

**Q.** What about the EC50 [3] of the same molecule?
**A.** < 10 µM

**Q.** Which EC50 [1] does the source give for `CCONCC1Cc2c(cc(C)c(O)c2C)OC12CCC2` (stereo not shown) [3-[(ethoxyamino)methyl]-5,7-dimethyl-3,4-dihydrospiro-[chromene-2,1′-cyclobutan]-6-ol] here?
**A.** < 5 µM

**Q.** What about the EC50 [3] of the same molecule?
**A.** < 10 µM

**Q.** What does the source list for `CC1=Cc2c(C)c(O)c(C)c(C)c2OC12CCC2` [3,5,7,8-tetramethylspiro[chromene-2,1′-cyclobutan]-6-ol]?
**A.** EC50 [1]: < 5 µM; EC50 [3]: < 10 µM

**Q.** Which results are given for `Cc1c(C)c2c(c(C)c1O)C(NO)CC1(CCC1)O2` (stereo not shown) [4-(hydroxyamino)-5,7,8-trimethyl-3,4-dihydrospiro[chromene-2,1′-cyclobutan]-6-ol]?
**A.** EC50 [1]: < 5 µM; IC50 [2]: < 0.3 µM; EC50 [3]: < 10 µM

**Q.** Which results are given for `COC1Cc2c(C)c(O)c(C)c(C)c2OC12CCC2` (stereo not shown) [3-methoxy-5,7,8-trimethyl-3,4-dihydrospiro[chromene-2,1′-cyclobutan]-6-ol]?
**A.** EC50 [1]: < 5 µM; EC50 [3]: < 10 µM

**Q.** With `Cc1cc2c(c(C)c1O)/C(=N/O)CC1(CCC1)O2` [6-hydroxy-5,7-dimethylspiro[chromene-2,1′-cyclobutan]-4(3H)-one oxime] as the molecule, how does the EC50 [1] read?
**A.** < 5 µM

**Q.** And the IC50 [2]?
**A.** < 0.3 µM

**Q.** And the EC50 [3]?
**A.** < 10 µM

**Q.** How did the EC50 [1] turn out when `CCO/N=C1\CC2(CCC2)Sc2c(C)c(C)c(O)c(C)c21` [6′-hydroxy-5′,7′,8′-trimethylspiro[cyclobutane-1,2′-thiochromen]-4′(3′H)-one O-ethyloxime] was run?
**A.** < 5 µM

**Q.** What about the IC50 [2] of the same molecule?
**A.** < 0.3 µM

**Q.** What about the EC50 [3] of the same molecule?
**A.** < 10 µM

**Q.** Which EC50 [1] does the source give for `COC1CC2(CCC2)Oc2cc(C)c(O)c(C)c21` (stereo not shown) [4-methoxy-5,7-dimethyl-3,4-dihydrospiro[chromene-2,1′-cyclobutan]-6-ol] here?
**A.** < 5 µM

**Q.** What about the IC50 [2] of the same molecule?
**A.** < 0.3 µM

**Q.** What about the EC50 [3] of the same molecule?
**A.** < 10 µM

**Q.** Which EC50 [1] does the source give for `Cc1c(O)cc2c(c1C)OCC1(CCC1)C2` [7,8-dimethylspiro[chroman-3,1′-cyclobutan]-6-ol] here?
**A.** < 5 µM

**Q.** And the IC50 [2]?
**A.** < 0.3 µM

**Q.** What about the EC50 [3] of the same molecule?
**A.** < 10 µM

**Q.** Which results are given for `Cc1c(C)c2c(c(C)c1O)CC(CO)C1(CCC1)O2` (stereo not shown) [3-(hydroxymethyl)-5,7,8-trimethyl-3,4-dihydrospiro[chromene-2,1′-cyclobutan]-6-ol]?
**A.** EC50 [1]: < 5 µM; EC50 [3]: < 10 µM

**Q.** Which results are given for `Cc1c(C)c2c(c(C)c1O)C(=NO)CC1(CCC1)O2` [6-hydroxy-5,7,8-trimethylspiro[chromene-2,1′-cyclobutan]-4(3H)-one oxime]?
**A.** EC50 [1]: < 5 µM; EC50 [3]: < 10 µM

**Q.** How did the EC50 [1] turn out when `COC1c2c(C)c(O)c(C)c(C)c2OC2(CCC2)C1C` (stereo not shown) [4-methoxy-3,5,7,8-tetramethyl-3,4-dihydrospiro[chromene-2,1′-cyclobutan]-6-ol] was run?
**A.** < 5 µM

**Q.** And the EC50 [3]?
**A.** < 10 µM

**Q.** How did the EC50 [1] turn out when `Cc1c(C)c2c(c(C)c1O)CC(O)C1(CCC1)O2` (stereo not shown) [5,7,8-trimethyl-3,4-dihydrospiro[chromene-2,1′-cyclobutane]-3,6-diol] was run?
**A.** < 5 µM

**Q.** What about the EC50 [3] of the same molecule?
**A.** < 10 µM

**Q.** For `Cc1c(C)c2c(c(C)c1O)C=C(C(C)O)C1(CCC1)O2` (stereo not shown) [3-(1-hydroxyethyl)-5,7,8-trimethylspiro[chromene-2,1′-cyclobutan]-6-ol], which EC50 [1] is on record?
**A.** < 5 µM

**Q.** And the EC50 [3]?
**A.** < 10 µM
